Results published in article PMC6150365, “Simultaneous Determination of Seven Components in Rat Plasma by the UPLC-MS/MS Method and Application of Pharmacokinetic Studies to SimiaoYong’an Decoction” (Molecules : A Journal of Synthetic Chemistry and Natural …, 2017).

Assay: Pharmacokinetic study in rats after oral administration of SYD extract and its single and combined TCM extracts (UPLC-MS/MS of plasma)
Conditions: male, Sprague-Dawley, rat, plasma, po, n = 6; for AUC(0-t) / AUC(0-inf) / Cmax / MRT last / MRT inf / Tmax: rat plasma; for MRT last: MRT(0–t); for MRT inf: MRT(0–∞)
[1] = 2.49 g/kg, oral SN extract 2.49 g/kg
[2] = 3.38 g/kg extract (6.67 g/kg as herbs), oral SN + GU extract
[3] = 3.38 g·kg^−1 (extract), oral SN + GU extract
[4] = 3.98 g/kg extract (8.33 g/kg as herbs), oral SN + AS extract
[5] = 4.5 g·kg^−1 (extract), oral LJ + SN extract
[6] = 4.5 g·kg^−1 extract, oral LJ + SN extract
[7] = 4.73 g/kg, oral LJ + SN + GU extract 4.73 g/kg
[8] = 5.43 g/kg, oral LJ + SN + AS extract 5.43 g/kg
[9] = 8.25 g/kg, oral SYD extract 8.25 g/kg

Description: Pieces of LJ, SN, AS and GU were weighed according to the proportion of 3:3:2:1 with appropriate amounts. The mixed pieces were crushed and decocted two times (60 min each time) with water (1:10 w/v) after being soaked for 60 min. The decoctions were then combined and condensed to the concentration of 0.5 g/mL, after which 95% ethanol was slowly added to the concentrate until a final ethanol concentration of 70% was reached. The SYD solution was set at room temperature overnight and then was filtered. The solvent was recovered, and the residue was dried under reduced pressure. A certain amount of the water extract of SYD was weighed and then dissolved with purified water for intragastric (oral) administration solution. The single herbs and different combination groups such as LJ, SN, AS, GU, LJ + SN, LJ + AS, LJ + GU, SN + AS, SN + GU, AS + GU, LJ + SN + AS, LJ + SN + GU, LJ + AS + GU and SN + AS + GU were prepared according to the procedure of SYD.
Male Sprague-Dawley (SD) rats (body weight 250 ± 10 g) were supplied by the SPF (Beijing) Biotechnology Co., Ltd. (Certificate No.: SCXK 2016-0002, Beijing, China). The animals were maintained in controlled conditions (temperature 20–25 °C, relative humidity 55–60% and 12-h light/12-h dark cycle) with free access to standard laboratory food and water for seven days of acclimation and then fasted for 12 h before each experiment but allowed to drink freely during this time.
Ninety male SD rats were randomly separated into 15 groups and administered a dosage of extract via gastric gavage once per day; detailed information about the oral daily dose of SYD extract and the corresponding single and combined TCMs (LJ, SN, AS, GU, LJ + SN, LJ + AS, LJ + GU, SN + AS, SN + GU, AS + GU, LJ + SN + AS, LJ + SN + GU, LJ + AS + GU, SN + AS + GU and SYD) is listed in Table 4.
Each plasma sample (200 μL) with 50 μL IS solution added was spiked into 100 μL 1% formic acid distilled water solution and then vortexed for 1 min. Protein was precipitated by adding 600 μL of methanol to the mixture. After being vortexed and sonicated, the samples were centrifuged at 25,000 r/min, 4 °C for 10 min. The supernatant of each sample was transferred to a new 2-mL centrifuge tube and evaporated to dryness by N2 at 40 °C. Finally, the residue was dissolved in 100 μL methanol–water (1:1, v/v), followed by centrifugation at 30,000 r/min, 4 °C for 10 min, and 10-μL supernatant aliquots were injected into the UPLC-MS/MS system for analysis.
The SYD was decomposed into 15 groups of compatibility combinations (LJ, SN, AS, GU, LJ + SN, LJ + AS, LJ + GU, SN + AS, SN + GU, AS + GU, LJ + SN + AS, LJ + SN + GU, LJ + AS + GU, SN + AS + GU and SYD). The 15 combinations were weighed according to the proportion of 3:3:2:1 with appropriate amounts and prepared by the method described in “Section 3.2”. Six male SD rats (body weight 250 ± 10 g) of each compatibility group were used in the pharmacokinetic study. After 12-h fast, rats of the different groups were orally administered the respective extract dissolved in saline (Table 4). Venous blood (0.45 mL) was obtained from the orbit vein and collected in heparin-pretreated polypropylene centrifuge tubes at 0.083 h, 0.17 h, 0.25 h, 0.50 h, 0.75 h, 1.0 h, 1.5 h, 2.0 h, 3.0 h, 4.0 h, 6.0 h, 8.0, 12 h and 24 h post-dose. The plasma was separated by centrifugation at 8000 r/min for 10 min and then stored at −20 °C until analysis. The amount of each analyte in the plasma was estimated by UPLC-MS/MS analysis as described in Section 3.5.
Non-compartmental methods using Phoenix WinNonlin 7.0 software provided by the Beijing University of Chinese Medicine were used to analyze plasma concentration versus time profiles and to estimate the following pharmacokinetic parameters: terminal elimination half-lives (t1/2), area under the plasma concentration versus time curve from zero to last sampling time (AUC), and the mean residence time (MRT).

Q: What does the source list for `C[C@]1(OC(=O)/C=C/c2ccccc2)C[C@@H](O)[C@]2(O)C=CO[C@@H](O[C@@H]3O[C@H](CO)[C@@H](O)[C@H](O)[C@H]3O)[C@@H]21` [Harpagoside, harpagoside]?
A: AUC(0-t) [1]: 310 ± 110 ng·h/mL; AUC(0-inf) [1]: 320 ± 110 ng·h/mL; Cmax [1]: 110 ± 50 ng/mL; MRT last [1]: 4.75 ± 1.17 h; MRT inf [1]: 5.69 ± 3.19 h; Tmax [1]: 1.08 ± 0.47 h; half-life (2.49 g/kg, t1/2, rat plasma, oral SN extract 2.49 g/kg): 3.34 ± 3.36 h; MRT last [2]: 5.72 ± 2.55 h; MRT inf [2]: 47.5 ± 78.2 h; Tmax [2]: 1.25 ± 0.59 h; half-life (3.38 g/kg extract (6.67 g/kg as herbs), t1/2, rat plasma, oral SN + GU extract): 18.3 ± 6.9 h; AUC(0-t) [3]: 80 ± 10 ng·h/mL; AUC(0-inf) [3]: 110 ± 80 ng·h/mL; Cmax (3.38 g·kg^−1 extract, oral SN + GU extract): 50 ± 10 ng/mL; AUC(0-t) [4]: 100 ± 70 ng·h/mL; AUC(0-inf) [4]: 130 ± 90 ng·h/mL; MRT last [4]: 4.51 ± 2.04 h; MRT inf [4]: 41.9 ± 67.3 h; half-life (3.98 g·kg^−1, t1/2, rat plasma, oral SN + AS extract): 16.6 ± 1.4 h; Cmax (3.98 g·kg^−1 extract, oral SN + AS extract): 70 ± 10 ng/mL; MRT last [5]: 5.32 ± 1.39 h; MRT inf [5]: 46.3 ± 70.7 h; half-life (4.5 g·kg^−1 (extract), t1/2, rat plasma, oral LJ + SN extract): 15.8 ± 1.19 h; AUC(0-t) [6]: 60 ± 10 ng·h/mL; AUC(0-inf) [6]: 90 ± 10 ng·h/mL; Cmax [6]: 30 ng/mL; AUC(0-t) [7]: 150 ± 70 ng·h/mL; AUC(0-inf) [7]: 190 ± 110 ng·h/mL; Cmax [7]: 80 ng/mL; MRT last [7]: 3.17 ± 0.59 h; MRT inf [7]: 22.6 ± 31.1 h; Tmax [7]: 1.79 ± 0.51 h; half-life (4.73 g/kg, t1/2, rat plasma, oral LJ + SN + GU extract 4.73 g/kg): 13.3 ± 4.59 h; AUC(0-t) [8]: 110 ± 80 ng·h/mL; AUC(0-inf) [8]: 110 ± 80 ng·h/mL; Cmax [8]: 50 ng/mL; MRT last [8]: 3.16 ± 0.68 h; MRT inf [8]: 13 ± 19.9 h; Tmax [8]: 1.63 ± 0.49 h; half-life (5.43 g/kg, t1/2, rat plasma, oral LJ + SN + AS extract 5.43 g/kg): 9.79 ± 5.03 h; AUC(0-t) [9]: 120 ± 90 ng·h/mL; AUC(0-inf) [9]: 140 ± 90 ng·h/mL; Cmax [9]: 70 ± 70 ng/mL; MRT last [9]: 3.92 ± 1.31 h; MRT inf [9]: 19.8 ± 8.74 h; Tmax [9]: 1.5 h; half-life (8.25 g/kg, t1/2, rat plasma, oral SYD extract 8.25 g/kg): 11.2 ± 2.64 h; Tmax ([…], oral SN + AS + GU extract […]): 0.83 ± 0.13 h; half-life ([…], t1/2, rat plasma, oral SN + AS + GU extract […]): 15.5 ± 1.54 h
